The text below walks through data of PMC3851574 (Journal of structural biology, 2013).

This experiment has as its target T1, GCN4-Kar3Cik1 (Kar3Cik1) (Saccharomyces cerevisiae, UniProt P17119).
T1 sequence (P17119 353-729): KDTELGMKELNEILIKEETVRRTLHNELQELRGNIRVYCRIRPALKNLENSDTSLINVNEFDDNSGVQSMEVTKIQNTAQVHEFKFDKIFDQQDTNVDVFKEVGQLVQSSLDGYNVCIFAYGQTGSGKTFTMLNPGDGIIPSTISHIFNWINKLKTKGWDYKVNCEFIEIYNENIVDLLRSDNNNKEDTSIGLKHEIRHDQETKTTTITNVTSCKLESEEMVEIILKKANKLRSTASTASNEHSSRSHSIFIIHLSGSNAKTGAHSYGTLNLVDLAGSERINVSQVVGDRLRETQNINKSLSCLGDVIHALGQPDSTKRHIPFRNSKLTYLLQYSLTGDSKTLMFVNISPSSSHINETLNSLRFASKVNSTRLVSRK
T1 sequence (Q01649 344-594 partner): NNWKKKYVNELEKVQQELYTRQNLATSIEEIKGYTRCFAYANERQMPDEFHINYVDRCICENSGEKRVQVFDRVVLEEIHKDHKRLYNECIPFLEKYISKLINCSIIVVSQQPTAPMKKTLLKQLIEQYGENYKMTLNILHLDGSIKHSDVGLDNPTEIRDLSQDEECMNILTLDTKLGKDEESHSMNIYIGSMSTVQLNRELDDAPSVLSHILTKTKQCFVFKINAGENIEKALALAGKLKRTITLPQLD
Put plainly: cryo-EM and unidirectional metal shadowing of microtubule decoration. The experiment is classed as binding. Particulars: 1 mM ADP; bovine brain microtubules; ATPase buffer pH 7.2.

Consider `Nc1ncnc2c1ncn2[C@@H]1O[C@H](COP(=O)(O)OP(=O)(O)O)[C@@H](O)[C@H]1O` [ADP], for which the “cryo-EM and unidirectional metal shadowing of microtubule decoration” value is reported as “Excess ADP significantly lowered the microtubule-binding affinity of Kar3Cik1 in our experiments”.
